Reference: patent US20250205186A1, “USE OF CHLOROGENIC ACID IN PREPARING MEDICINE OR PHARMACEUTICAL COMPOSITION FOR PREVENTING OR TREATING PAIN” (SICHUAN JIUZHANG BIOLOGICAL SCIENCE AND TECHNOLOGY CO., LTD., priority 2019, published 2025)

What was measured:
[1] = system: bone cancer pain in rats (Walker rat breast cancer cells, tibia implant model); assay: Radiant heat pain response (pain threshold) in rat tibia implant bone cancer pain model; type: in vivo; conditions: for Radiant heat pain threshold compared with the model group: from 7 days after administration, p<0.05
Description: After two SD female rats were intraperitoneally injected with 0.5 mL cancer cells (4×10^4 cells/μL), ascites was collected on the 7th day, and the cells are rinsed 3 times with sterile 0.01 mol/L PBS to adjust to the concentration of 4×10^3 cells/μL for use. 60 SD rats were randomly selected, and after anesthesia, a small 1 cm incision was made in the upper tibial skin. A 10 mL syringe needle was used to puncture and perforate, then a 10 μL syringe was inserted into the bone marrow cavity, and 3 μL cell suspension containing 3×10^3 Walker rat breast cancer cells was slowly injected. The pinhole was sealed with bone wax, and the skin was sutured. After surgery, the rats were placed on a 37° C. hot plate for rewarming. After recovery, rats were returned to the cage for further breeding, to obtain the model group. In addition, 8 SD rats were randomly selected, and an equal volume of PBS solution was injected into the marrow cavity of the left upper tibia. The rest of the operations were the same as the model group, to obtain the sham operation group. Radiation thermal pain response: the rat was placed on a glass plate, and the affected side of the foot was irradiated with a heat radiator. The plantar side of each rat would be tested 3 times at an interval of 5 min. The response time from exposure to paw withdrawal was recorded, and the time to retract the paw was the pain threshold. […] The rats that had been successfully modeled were randomly divided into groups, eight rats for each group, that included high-dose chlorogenic acid group (80 mg/kg), middle-dose chlorogenic acid group (40 mg/kg), low-dose chlorogenic acid group (20 mg/kg), model negative group (N.S normal saline), and sham operation group (N.S normal saline). The rats were intraperitoneally injected with drugs for 15 days in a volume of 0.2 mL/10 g, once a day; the model-negative group and the sham operation group were given the same volume of normal saline. From the second day after administration, the mechanical pain hypersensitivity and radiation thermal pain were investigated before each administration, and the paw withdrawal threshold and the pain threshold were recorded.

TNF-α = assay: Serum TNF-α content by ELISA in bone cancer pain rats; type: in vivo, rat; conditions: for Cytokines TNF-α content in serum: after 15 days of administration; for Serum level of TNF-α compared with the model-negative group: after 15 days
Description: 60 SD rats were randomly selected, and after anesthesia, a small 1 cm incision was made in the upper tibial skin. A 10 mL syringe needle was used to puncture and perforate, then a 10 μL syringe was inserted into the bone marrow cavity, and 3 μL cell suspension containing 3×10^3 Walker rat breast cancer cells was slowly injected. The pinhole was sealed with bone wax, and the skin was sutured. After surgery, the rats were placed on a 37° C. hot plate for rewarming. After recovery, rats were returned to the cage for further breeding, to obtain the model group. In addition, 8 SD rats were randomly selected, and an equal volume of PBS solution was injected into the marrow cavity of the left upper tibia. The rest of the operations were the same as the model group, to obtain the sham operation group. The rats that had been successfully modeled were randomly divided into groups, eight rats for each group, that included high-dose chlorogenic acid group (80 mg/kg), middle-dose chlorogenic acid group (40 mg/kg), low-dose chlorogenic acid group (20 mg/kg), model negative group (N.S normal saline), and sham operation group (N.S normal saline). The rats were intraperitoneally injected with drugs for 15 days in a volume of 0.2 mL/10 g, once a day; the model-negative group and the sham operation group were given the same volume of normal saline. After the last administration, blood was collected from the eyeballs of the rats, and the animals in each group were sacrificed by neck removal. The blood samples were allowed to stand at room temperature for 20 minutes and then centrifuged. The supernatant was collected and the contents of TNF-α, IL-1β, and IL-6 in the peripheral blood serum of the […] were determined by ELISA.

Structure (SMILES): O=C(/C=C/c1ccc(O)c(O)c1)O[C@@H]1C[C@](O)(C(=O)O)C[C@@H](O)[C@H]1O [Chlorogenic acid]
- Pain threshold ([1]; 20 mg/kg ip once a day, 2 d): 3.86 s
- Pain threshold ([1]; 20 mg/kg ip once a day, 3 d): 4.11 s
- Pain threshold ([1]; 20 mg/kg ip once a day, 4 d): 3.93 s
- Pain threshold ([1]; 20 mg/kg ip once a day, 5 d): 9.53 s
- Pain threshold ([1]; 20 mg/kg ip once a day, 6 d): 16.66 s
- Pain threshold ([1]; 20 mg/kg ip once a day, 7 d): 17.89 s
- Pain threshold ([1]; 20 mg/kg ip once a day, 8 d): 16.72 s
- Pain threshold ([1]; 20 mg/kg ip once a day, 9 d): 15.45 s
- Pain threshold ([1]; 20 mg/kg ip once a day, 10 d): 16.74 s
- Pain threshold ([1]; 20 mg/kg ip once a day, 11 d): 15.52 s
- Pain threshold ([1]; 20 mg/kg ip once a day, 12 d): 15.97 s
- Pain threshold ([1]; 20 mg/kg ip once a day, 13 d): 16.35 s
- Pain threshold ([1]; 20 mg/kg ip once a day, 14 d): 16.22 s
- Pain threshold ([1]; 20 mg/kg ip once a day, 15 d): 16.75 s
- Radiant heat pain threshold compared with the model group ([1]; 20 mg/kg): significant difference
- Pain threshold ([1]; 40 mg/kg ip once a day, 2 d): 3.62 s
- Pain threshold ([1]; 40 mg/kg ip once a day, 3 d): 3.52 s
- Pain threshold ([1]; 40 mg/kg ip once a day, 4 d): 6.36 s
- Pain threshold ([1]; 40 mg/kg ip once a day, 5 d): 12.52 s
- Pain threshold ([1]; 40 mg/kg ip once a day, 6 d): 20.53 s
- Pain threshold ([1]; 40 mg/kg ip once a day, 7 d): 20.49 s
- Pain threshold ([1]; 40 mg/kg ip once a day, 8 d): 19.83 s
- Pain threshold ([1]; 40 mg/kg ip once a day, 9 d): 21.21 s
- Pain threshold ([1]; 40 mg/kg ip once a day, 10 d): 24.32 s
- Pain threshold ([1]; 40 mg/kg ip once a day, 11 d): 20.59 s
- Pain threshold ([1]; 40 mg/kg ip once a day, 12 d): 21.41 s
- Pain threshold ([1]; 40 mg/kg ip once a day, 13 d): 22.39 s
- Pain threshold ([1]; 40 mg/kg ip once a day, 14 d): 21.74 s
- Pain threshold ([1]; 40 mg/kg ip once a day, 15 d): 20.88 s
- Radiant heat pain threshold compared with the model group ([1]; 40 mg/kg): significant difference
- Pain threshold ([1]; 80 mg/kg ip once a day, 2 d): 4.17 s
- Pain threshold ([1]; 80 mg/kg ip once a day, 3 d): 4.24 s
- Pain threshold ([1]; 80 mg/kg ip once a day, 4 d): 4.09 s
- Pain threshold ([1]; 80 mg/kg ip once a day, 5 d): 5.52 s
- Pain threshold ([1]; 80 mg/kg ip once a day, 6 d): 8.15 s
- Pain threshold ([1]; 80 mg/kg ip once a day, 7 d): 8.22 s
- Pain threshold ([1]; 80 mg/kg ip once a day, 8 d): 7.98 s
- Pain threshold ([1]; 80 mg/kg ip once a day, 9 d): 7.59 s
- Pain threshold ([1]; 80 mg/kg ip once a day, 10 d): 8.03 s
- Pain threshold ([1]; 80 mg/kg ip once a day, 11 d): 8.05 s
- Pain threshold ([1]; 80 mg/kg ip once a day, 12 d): 7.76 s
- Pain threshold ([1]; 80 mg/kg ip once a day, 13 d): 7.98 s
- Pain threshold ([1]; 80 mg/kg ip once a day, 14 d): 8.52 s
- Pain threshold ([1]; 80 mg/kg ip once a day, 15 d): 8.38 s
- Threshold compared with the model group (radiant heat pain section) ([1]; 80 mg/kg, p>0.05): not statistically significant
- Cytokines TNF-α content in serum (TNF-α; 20 mg/kg ip once a day): 39.74 ± 6.04 ng/L
- Serum level of TNF-α compared with the model-negative group (TNF-α; 20 mg/kg, p<0.05): lower than those in the model-negative group
- Cytokines TNF-α content in serum (TNF-α; 40 mg/kg ip once a day): 35.25 ± 4.62 ng/L
- Serum level of TNF-α compared with the model-negative group (TNF-α; 40 mg/kg, p<0.05): lower than those in the model-negative group
- Cytokines TNF-α content in serum (TNF-α; 80 mg/kg ip once a day): 54.48 ± 5.99 ng/L
- Serum level of TNF-α compared with the model-negative group (TNF-α; 80 mg/kg): the difference was not significant
